{"source": "paper PMC9508239", "about": "(Nature Communications, 2022)", "key": {"SREBP1": {"test_system": "SREBP1", "experiment": "Nuclear translocation of SREBP1 in primary mouse hepatocytes", "assay_type": "cell-based", "settings": "100 nM, 30 min", "procedure": "(§1) Primary hepatocytes were isolated from 2-month-old male mice with a standard two-step collagenase perfusion procedure as described earlier with some modifications[24],[48],[49]. […] After 1–2 s upon the appearance of white spots in the liver, we cut the portal vein with scissors to wash out blood, and then the liver was perfused with 30 ml of Liver Digest Medium (Thermo Scientific, Cat. #17703034). The dissected liver was gently washed with low-glucose DMEM and transferred to a sterile culture dish containing 15 ml Liver Digest Medium. The isolated liver cells were filtered through the 70 μm cell strainer into a 50 ml tube. After centrifuging at 50×g for 5 min at 4 °C, cells were washed with cold low-glucose DMEM three times. […] After 2 h, the medium was changed to serum-free low-glucose DMEM.\nPrimary hepatocytes were described in the primary hepatocyte isolation section. […] Cells were fixed with 4% paraformaldehyde for 10 min. The fixed cells were incubated with PBS for 30 min and 3% BSA in PBS with 0.1% Triton X-100 (0.1% PBST) for 1 h, and then treated with anti-SREBP1 antibodies (20B12, Millipore, Cat. #MABS1987, 1:200) in 3% BSA in 0.1% PBST at 4 °C overnight. After being washed, cells were incubated with secondary antibodies (Alexa Fluor 488 goat anti-rabbit, Invitrogen, Cat. #A11008, 1:200) for 1 h. […]"}, "IR D707A": {"test_system": "IR D707A", "experiment": "Auto-phosphorylation of IR in 293FT cells expressing IR D707A", "assay_type": "cell-based, human", "procedure": "(§2) For the activation assay, the short isoform of human IR in pCS2-MYC was used as described previously[20],[49]. Plasmid transfections into 293FT cells were performed with Lipofectamin^TM 2000 (Invitrogen).\n(§3) The cells were incubated with the lysis buffer B [50 mM Hepes pH 7.4, 150 mM NaCl, 10% Glycerol, 1% Triton X-100, 1 mM EDTA, 100 mM sodium fluoride, 2 mM sodium orthovanadate, 20 mM sodium pyrophosphate, 0.5 mM dithiothreitol (DTT), 2 mM phenylmethylsulfonyl fluoride (PMSF)] supplemented with cOmplete Protease Inhibitor Cocktail (Roche), PhosSTOP (Sigma), and 25 U/ml turbo nuclease (Accelagen) on ice for 1 h. After centrifuging at 20,817×g at 4 °C for 10 min, the concentrations of cell lysate were measured using Micro BCA Protein Assay Kit (Thermo Scientific). About 50–60 μg total proteins were analyzed by SDS-PAGE and quantitative Western blotting. […] For quantitative western blots, anti-rabbit immunoglobulin G (IgG) (H + L) (WB, 1:5000; Dylight 800 conjugates, Cat. #5151) and anti-mouse IgG (H + L) (WB, 1:5000; Dylight 680 conjugates, Cat. #5470) (Cell Signaling) were used as secondary antibodies. […]"}, "IR": {"test_system": "IR", "experiment": "IR signaling (pY IR, pAKT, pERK) in primary mouse hepatocytes (Fig. S9)", "assay_type": "cell-based", "procedure": "as §1, §3"}, "IR F701A/F705A": {"test_system": "IR F701A/F705A", "experiment": "Auto-phosphorylation of IR in 293FT cells expressing IR F701A/F705A", "assay_type": "cell-based, human", "procedure": "as §2, §3"}, "IR R14A": {"test_system": "IR R14A", "experiment": "Auto-phosphorylation of IR in 293FT cells expressing IR R14A", "assay_type": "cell-based, human", "procedure": "as §2, §3"}, "blood glucose": {"test_system": "blood glucose", "experiment": "Oral glucose tolerance test after chronic treatment", "assay_type": "in vivo, mouse", "set-up": "Mean Diff. of blood glucose (OGTT) / blood glucose (OGTT) / Supplementary Figure 10d (area under the OGTT glucose curve): unit not given here", "settings": "for Mean Diff. of blood glucose (OGTT), PBS vs. treatment: PBS minus treatment, Tukey's multiple comparisons test; for Mean Diff. of blood glucose (OGTT): Dunnett's multiple comparisons test; for Supplementary Figure 10d (area under the OGTT glucose curve): time 0-120", "procedure": "For the oral glucose tolerance test, mice were fasted for 6 h and their blood glucose levels (T = 0) were measured with tail bleeding using a glucometer (AlphaTRAK). After then, glucose (2 g/kg body weight) was administered by oral gavage. Blood glucose levels were measured at the indicated time points after glucose administration. For Fig. S10f, 2 months old male mice were fasted for 14 h. […] One hour later, livers were collected."}, "IR N15K": {"test_system": "IR N15K", "experiment": "Auto-phosphorylation of IR in 293FT cells expressing IR N15K", "assay_type": "cell-based, human", "procedure": "as §2, §3"}}, "data": [{"substance": "insulin: native IR ligand used as comparator; Humulin in the in vivo tests", "values": [{"measurement": "nuclear translocation of SREBP1", "setting": "SREBP1", "value": "stimulated to the same level by insulin and S597"}, {"measurement": "IR activation", "setting": "IR D707A", "value": "reduced insulin-dependent IR activation"}, {"measurement": "phosphorylation of AKT, primary hepatocytes", "setting": "IR", "value": "increased the levels of pY IR, pAKT, and pERK similarly"}, {"measurement": "phosphorylation of ERK, primary hepatocytes", "setting": "IR", "value": "increased the levels of pY IR, pAKT, and pERK similarly"}, {"measurement": "phosphorylation of IR, primary hepatocytes", "setting": "IR", "value": "increased the levels of pY IR, pAKT, and pERK similarly"}, {"measurement": "IR activation", "setting": "IR F701A/F705A", "value": "reduced insulin-dependent IR activation"}, {"measurement": "IR activation", "setting": "IR R14A", "value": "reduced insulin-dependent IR activation"}, {"measurement": "Mean Diff. of blood glucose (OGTT), PBS vs. treatment", "setting": "blood glucose; Row 1 (time 0)", "value": -8}, {"measurement": "Mean Diff. of blood glucose (OGTT)", "setting": "blood glucose; Row 1 vs. Row 2 (time 0 minus time 15)", "value": -254.8}, {"measurement": "Mean Diff. of blood glucose (OGTT)", "setting": "blood glucose; Row 1 vs. Row 3 (time 0 minus time 30)", "value": -168.8}, {"measurement": "Mean Diff. of blood glucose (OGTT)", "setting": "blood glucose; Row 1 vs. Row 4 (time 0 minus time 60)", "value": -60}, {"measurement": "Mean Diff. of blood glucose (OGTT)", "setting": "blood glucose; Row 1 vs. Row 5 (time 0 minus time 120)", "value": -35.2}, {"measurement": "Mean Diff. of blood glucose (OGTT), PBS vs. treatment", "setting": "blood glucose; Row 2 (time 15)", "value": -66.2}, {"measurement": "Mean Diff. of blood glucose (OGTT), PBS vs. treatment", "setting": "blood glucose; Row 3 (time 30)", "value": -9}, {"measurement": "Mean Diff. of blood glucose (OGTT), PBS vs. treatment", "setting": "blood glucose; Row 4 (time 60)", "value": 1}, {"measurement": "Mean Diff. of blood glucose (OGTT), PBS vs. treatment", "setting": "blood glucose; Row 5 (time 120)", "value": -9.8}, {"measurement": "Supplementary Figure 10d (area under the OGTT glucose curve)", "setting": "blood glucose; mouse 1", "value": 37808}, {"measurement": "Supplementary Figure 10d (area under the OGTT glucose curve)", "setting": "blood glucose; mouse 2", "value": 37043}, {"measurement": "Supplementary Figure 10d (area under the OGTT glucose curve)", "setting": "blood glucose; mouse 3", "value": 31785}, {"measurement": "Supplementary Figure 10d (area under the OGTT glucose curve)", "setting": "blood glucose; mouse 4", "value": 39735}, {"measurement": "Supplementary Figure 10d (area under the OGTT glucose curve)", "setting": "blood glucose; mouse 5", "value": 46950}, {"measurement": "blood glucose (OGTT)", "setting": "blood glucose; time 0, mouse 1", "value": 197}, {"measurement": "blood glucose (OGTT)", "setting": "blood glucose; time 0, mouse 2", "value": 199}, {"measurement": "blood glucose (OGTT)", "setting": "blood glucose; time 0, mouse 3", "value": 224}, {"measurement": "blood glucose (OGTT)", "setting": "blood glucose; time 0, mouse 4", "value": 245}, {"measurement": "blood glucose (OGTT)", "setting": "blood glucose; time 0, mouse 5", "value": 272}, {"measurement": "blood glucose (OGTT)", "setting": "blood glucose; time 15, mouse 1", "value": 530}, {"measurement": "blood glucose (OGTT)", "setting": "blood glucose; time 15, mouse 2", "value": 406}, {"measurement": "blood glucose (OGTT)", "setting": "blood glucose; time 15, mouse 3", "value": 488}, {"measurement": "blood glucose (OGTT)", "setting": "blood glucose; time 15, mouse 4", "value": 463}, {"measurement": "blood glucose (OGTT)", "setting": "blood glucose; time 15, mouse 5", "value": 524}, {"measurement": "blood glucose (OGTT)", "setting": "blood glucose; time 30, mouse 1", "value": 434}, {"measurement": "blood glucose (OGTT)", "setting": "blood glucose; time 30, mouse 2", "value": 354}, {"measurement": "blood glucose (OGTT)", "setting": "blood glucose; time 30, mouse 3", "value": 258}, {"measurement": "blood glucose (OGTT)", "setting": "blood glucose; time 30, mouse 4", "value": 409}, {"measurement": "blood glucose (OGTT)", "setting": "blood glucose; time 30, mouse 5", "value": 526}, {"measurement": "blood glucose (OGTT)", "setting": "blood glucose; time 60, mouse 1", "value": 273}, {"measurement": "blood glucose (OGTT)", "setting": "blood glucose; time 60, mouse 2", "value": 303}, {"measurement": "blood glucose (OGTT)", "setting": "blood glucose; time 60, mouse 3", "value": 206}, {"measurement": "blood glucose (OGTT)", "setting": "blood glucose; time 60, mouse 4", "value": 300}, {"measurement": "blood glucose (OGTT)", "setting": "blood glucose; time 60, mouse 5", "value": 355}, {"measurement": "blood glucose (OGTT)", "setting": "blood glucose; time 120, mouse 1", "value": 211}, {"measurement": "blood glucose (OGTT)", "setting": "blood glucose; time 120, mouse 2", "value": 262}, {"measurement": "blood glucose (OGTT)", "setting": "blood glucose; time 120, mouse 3", "value": 257}, {"measurement": "blood glucose (OGTT)", "setting": "blood glucose; time 120, mouse 4", "value": 275}, {"measurement": "blood glucose (OGTT)", "setting": "blood glucose; time 120, mouse 5", "value": 308}, {"measurement": "IR activation", "setting": "IR N15K", "value": "reduced insulin-dependent IR activation"}]}]}
